According to the supplement of paper PMC8612539:
In brackets after ≈: the same amount, converted by molar mass.

What was measured:
[1] = tested on: Pasteurella multocida; test: minimum inhibitory concentration (MIC)
Method: (§1)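 Broth microdilution MIC (Sensititre BOPO7F bovine plate, CLSI methods) of 19 antimicrobials against field isolates of P. multocida, M. haemolytica, H. somni (deep nasopharyngeal swabs) and E. coli, Enterococcus spp. (rectal swabs) from weaned dairy heifers. Incubation 16-24 h at 35 C. MIC is the lowest concentration preventing visible growth. Values with <= or > lie at the tested range limits. Trimethoprim-sulfamethoxazole is given as the trimethoprim component of a 1:19 mixture.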

[2] = tested on: Enterococcus spp.; test: minimum inhibitory concentration (MIC)
Method: as §1

NC[C@@H]1O[C@H](O[C@H]2[C@@H](O)[C@H](O[C@@H]3[C@@H](O)[C@H](N)C[C@H](N)[C@H]3O[C@H]3O[C@H](CN)[C@@H](O)[C@H](O)[C@H]3N)O[C@@H]2CO)[C@H](N)[C@@H](O)[C@@H]1O [Neomycin]
minimum inhibitory concentration [µg/mL]
Settings | [1] | [2]
isolate (source animal id): 2 | – | ≤ 4
isolate (source animal id): 10 | > 32 | –
isolate (source animal id): 11 | > 32 | –
isolate (source animal id): 12 | > 32 | –
isolate (source animal id): 19 | > 32 | –
isolate (source animal id): 23 | > 32 | –
isolate (source animal id): 26 | > 32 | –
isolate (source animal id): 35 | – | > 32
isolate (source animal id): 42 | – | > 32
isolate (source animal id): 44 | – | > 32
isolate (source animal id): 79 | – | > 32
isolate (source animal id): 88 | – | 8 (≈ 13 µM)
isolate (source animal id): 91 | – | 8 (≈ 13 µM)
isolate (source animal id): 92 | – | 16 (≈ 26 µM)
isolate (source animal id): 98 | > 32 | –
isolate (source animal id): 104 | > 32 | –
isolate (source animal id): 111 | – | 16 (≈ 26 µM)
isolate (source animal id): 115 | 32 (≈ 52.1 µM) | –
isolate (source animal id): 117 | > 32 | –
isolate (source animal id): 118 | > 32 | –
isolate (source animal id): 121 | > 32 | –
isolate (source animal id): 122 | – | > 32
isolate (source animal id): 123 | – | 16 (≈ 26 µM)
isolate (source animal id): 124 | > 32 | –
isolate (source animal id): 125 | > 32 | –
isolate (source animal id): 128 | > 32 | –
isolate (source animal id): 131 | > 32 | –
isolate (source animal id): 133 | – | 32 (≈ 52.1 µM)
isolate (source animal id): 135 | > 32 | –
isolate (source animal id): 136 | > 32 | –
isolate (source animal id): 140 | > 32 | –
isolate (source animal id): 144 | > 32 | –
isolate (source animal id): 146 | > 32 | –
isolate (source animal id): 150 | > 32 | –
isolate (source animal id): 151 | 32 (≈ 52.1 µM) | –
isolate (source animal id): 153 | > 32 | –
isolate (source animal id): 155 | > 32 | –
isolate (source animal id): 157 | > 32 | –
isolate (source animal id): 158 | – | > 32
isolate (source animal id): 160 | 32 (≈ 52.1 µM) | –
isolate (source animal id): 164 | 32 (≈ 52.1 µM) | –
isolate (source animal id): 165 | 32 (≈ 52.1 µM) | –
isolate (source animal id): 167 | > 32 | –
isolate (source animal id): 168 | > 32 | 32 (≈ 52.1 µM)
isolate (source animal id): 169 | > 32 | 16 (≈ 26 µM)
isolate (source animal id): 170 | > 32 | –
isolate (source animal id): 171 | > 32 | 8 (≈ 13 µM)
isolate (source animal id): 172 | > 32 | –
isolate (source animal id): 173 | > 32 | –
isolate (source animal id): 174 | > 32 | –
isolate (source animal id): 175 | > 32 | > 32
isolate (source animal id): 176 | > 32 | –
isolate (source animal id): 177 | 16 (≈ 26 µM) | 32 (≈ 52.1 µM)
isolate (source animal id): 178 | > 32 | –
isolate (source animal id): 179 | > 32 | –
isolate (source animal id): 181 | – | 32 (≈ 52.1 µM)
isolate (source animal id): 182 | > 32 | 32 (≈ 52.1 µM)
isolate (source animal id): 183 | – | 32 (≈ 52.1 µM)
isolate (source animal id): 187 | – | 16 (≈ 26 µM)
isolate (source animal id): 190 | – | 32 (≈ 52.1 µM)
isolate (source animal id): 192 | > 32 | –
isolate (source animal id): 193 | 16 (≈ 26 µM) | –
isolate (source animal id): 194 | – | 8 (≈ 13 µM)
isolate (source animal id): 195 | 32 (≈ 52.1 µM) | 32 (≈ 52.1 µM)
isolate (source animal id): 196 | 8 (≈ 13 µM) | –
isolate (source animal id): 197 | > 32 | 16 (≈ 26 µM)
isolate (source animal id): 198 | > 32 | –
isolate (source animal id): 199 | > 32 | –
isolate (source animal id): 200 | > 32 | –
isolate (source animal id): 201 | > 32 | –
isolate (source animal id): 203 | 32 (≈ 52.1 µM) | –
isolate (source animal id): 204 | > 32 | –
isolate (source animal id): 205 | > 32 | –
isolate (source animal id): 206 | > 32 | –
isolate (source animal id): 207 | > 32 | –
isolate (source animal id): 208 | > 32 | –
isolate (source animal id): 209 | 32 (≈ 52.1 µM) | –
isolate (source animal id): 210 | > 32 | –
isolate (source animal id): 211 | – | > 32
isolate (source animal id): 213 | > 32 | –
isolate (source animal id): 214 | – | > 32
isolate (source animal id): 216 | > 32 | –
isolate (source animal id): 222 | – | > 32
isolate (source animal id): 223 | > 32 | 16 (≈ 26 µM)
isolate (source animal id): 227 | > 32 | –
isolate (source animal id): 228 | – | > 32
isolate (source animal id): 229 | > 32 | –
isolate (source animal id): 230 | – | > 32
isolate (source animal id): 233 | > 32 | –
isolate (source animal id): 234 | > 32 | –
isolate (source animal id): 235 | – | > 32
isolate (source animal id): 236 | – | 8 (≈ 13 µM)
isolate (source animal id): 237 | > 32 | –
isolate (source animal id): 239 | – | ≤ 4
isolate (source animal id): 241 | > 32 | > 32
isolate (source animal id): 244 | – | 8 (≈ 13 µM)
isolate (source animal id): 245 | > 32 | –
isolate (source animal id): 246 | – | 16 (≈ 26 µM)
isolate (source animal id): 247 | > 32 | > 32
isolate (source animal id): 250 | > 32 | 16 (≈ 26 µM)
isolate (source animal id): 252 | – | > 32
isolate (source animal id): 254 | > 32 | –
isolate (source animal id): 255 | > 32 | –
isolate (source animal id): 258 | > 32 | –
isolate (source animal id): 261 | > 32 | –
isolate (source animal id): 262 | > 32 | –
isolate (source animal id): 268 | – | 8 (≈ 13 µM)
isolate (source animal id): 269 | > 32 | –
isolate (source animal id): 270 | > 32 | –
isolate (source animal id): 274 | > 32 | –
isolate (source animal id): 275 | > 32 | –
isolate (source animal id): 276 | > 32 | –
isolate (source animal id): 277 | > 32 | –
isolate (source animal id): 278 | > 32 | –
isolate (source animal id): 279 | > 32 | –
isolate (source animal id): 280 | > 32 | –
isolate (source animal id): 282 | – | 16 (≈ 26 µM)
isolate (source animal id): 284 | > 32 | –
isolate (source animal id): 285 | > 32 | > 32
isolate (source animal id): 287 | > 32 | –
isolate (source animal id): 289 | – | 16 (≈ 26 µM)
isolate (source animal id): 290 | > 32 | 16 (≈ 26 µM)
isolate (source animal id): 294 | > 32 | –
isolate (source animal id): 295 | > 32 | –
isolate (source animal id): 296 | > 32 | 32 (≈ 52.1 µM)
isolate (source animal id): 298 | – | 16 (≈ 26 µM)
isolate (source animal id): 301 | – | 16 (≈ 26 µM)
isolate (source animal id): 307 | > 32 | –
isolate (source animal id): 310 | > 32 | > 32
isolate (source animal id): 311 | > 32 | –
isolate (source animal id): 312 | > 32 | –
isolate (source animal id): 313 | > 32 | –
isolate (source animal id): 315 | > 32 | –
isolate (source animal id): 316 | > 32 | –
isolate (source animal id): 320 | – | 16 (≈ 26 µM)
isolate (source animal id): 331 | – | > 32
isolate (source animal id): 333 | – | 16 (≈ 26 µM)
isolate (source animal id): 341 | – | > 32
